Source: patent US7649013B2, “Methods of protecting against radiation injury” (priority 2003, dated 2010)

Tested on: C57BL/6J inbred strain female mice
Assay: Histologic spleen cellularity after whole body irradiation, hematoxylin-eosin sections (Example 7c)
Format: in vivo
Details: 40 mg/kg i.p. 0.5 hour before 5 Gy (nonlethal); five days after irradiation
Protocol: Spleen cellularity is qualitatively assessed following whole body gamma irradiation in mice, with and without pretreatment with β-lapachone, as follows. β-lapachone is prepared at 10 mg/ml in 40% hydroxypropyl-beta-cyclodextrin (HPBCD). C57BL/6J inbred strain female mice (4-5 weeks old) are organized into three groups of six mice each: Group I mice receive no radiation, no β-lapachone, and no carrier; Group II mice receive radiation and are injected with carrier (40% HPBCD 4 ml/kg body weight); and Group III mice are injected intraperitoneally at 0.5 hour before irradiation with β-lapachone (40 mg/kg body weight). Whole body irradiation of animals with 8 Gy (lethal radiation) or 5 Gy (sublethal radiation) of γ-rays is carried out in air at room temperature in a gamma chamber (Gammacell 40 Exactor), with a dose-rate of 1.05 Gy/min. This radiation dose is within the range of equivalent human exposures predicted in many scenarios of radiologic or nuclear terrorist attack. Following irradiation, animals are maintained in a climate-controlled animal facility. Three mice in each of Groups I, II, and III are sacrificed on day five following irradiation, and an analysis of splenic cellularity is performed for each. […] Splenic cellularity is qualitatively assessed in sections stained with hematoxylin-eosin following standard procedures.

## CC1(C)CCC2=C(O1)c1ccccc1C(=O)C2=O [β-lapachone, 3,4-dihydro-2,2-dimethyl-2H-naphtho[1,2-b]pyran-5,6-dione]
  Spleen structure and cellularity judged histologically (FIG. 10): protective effect on spleen structure and cellularity
